Assay results published in paper PMC9826768, “New polychlorinated bibenzyls from Rhododendron minutiflorum” (Natural Products and Bioprospecting, 2023).

Columns and labels:
[1] = target: α-glucosidase; assay: α-glucosidase inhibitory activity (PNPG method); type: biochemical; settings: mean ± SE; acarbose as positive control
Protocol: In order to evaluate the insecticidal activities of all the isolated compounds, their toxicities on D. citri Kuwayama were tested.
According to the previously reported method, all the isolated compounds were screened for α-glucosidase inhibitory activity.

[2] = tested on: Diaphorina citri Kuwayama; assay: Insecticidal activity (toxicity) against the Asian citrus psyllid; type: in vivo; settings: for corrected mortality rate of citrus psyllid: 4th day after the test started, compound concentration higher than 50 mg/L; for LD50: against D. citri, during 6 days after treatment (calculated using observations on day 6), Probit analysis
Protocol: To avoid accidental injury, all the D. citri were carefully collected and cultured. The insecticidal activities of eight compounds were evaluated using methods described in the literature with slightly modified. […] Finally, mortality was calculated every 24 h starting on the second day of the trial.

| Compound | IC50 [1] [µM] | corrected mortality rate of citrus psyllid [2] | LD50 [2] [mg/L] |
| --- | --- | --- | --- |
| Oc1c(Cl)cc(CCc2c(Cl)cc(Cl)c(O)c2Cl)cc1Cl [Compound 1, 2,4,6,3′,5′-pentachloro-3,4′-dihydroxybibenzyl] | 82.8 ± 4.99 | – | – |
| Oc1c(Cl)cc(CCc2ccc(Cl)c(O)c2Cl)cc1Cl [Compound 2, 2,4,3′,5′-tetrachloro-3,4′-dihydroxybibenzyl] | – | higher than 50% | 27.15 |
| Oc1cc(CCc2cc(Cl)c(O)c(Cl)c2)c(Cl)cc1Cl [Compound 3, 4,6,3′,5′-tetrachloro-3,4′-dihydroxybibenzyl] | 60.4 ± 1.54 | – | 48.50 |
| Oc1cc(CCc2cc(Cl)c(O)c(Cl)c2)ccc1Cl [Compound 4, 4,3′,5′-trichloro-3,4′-dihydroxybibenzyl] | 17.9 ± 0.74 | – | – |
| COc1cc(CCc2cc(Cl)c(O)c(Cl)c2)ccc1Cl [Compound 5, 4,3′,5′-trichloro-4′-hydroxyl-3-methoxybibenzyl] | 62.7 ± 6.87 | higher than 50% | 17.02 |
| COc1cc(O)c(CCC(C)(C)O)c(CCc2ccccc2)c1 [Compound 6, 3-hydroxyl-5-methoxy-2-(3′-hydroxyl-3′-methylbutyl)-bibenzyl] | 76 ± 12 | higher than 50% | 16.20 |
| CC(C)=CCc1c(O)cc(O)cc1CCc1ccccc1 [Compound 7, 3,5-dihydroxyl-2-(3′-methyl-2′-butenyl)-bibenzyl] | 56.7 ± 1.42 | – | 48.64 |
| CC(C)=CCc1ccc(CCc2ccc(O)cc2)cc1O [Compound 8, 3,4″-dihydroxyl-4-(3′-methyl-2′-butenyl)-bibenzyl] | 65.4 ± 2.04 | – | – |
| O=C1CCC[C@@H]2[C@H]3CCCN4CCC[C@@H](CN12)[C@@H]34 [Matrine, matrine, reference compound] | – | – | 11.86 |
